The source of these data is patent US11098061B2 (Celgene CAR LLC, priority 2013, dated 2021).

In one assay the target is MK2 (Homo sapiens (Human), UniProt P49137). Briefly: MK2 modification assessment by whole protein mass spectrometry. The assay is classed as binding. The settings on record: intact MK2, 60 min, 10-fold excess of compound to protein. Here is the method:
Modification of MK2 is measured by whole protein MS analysis. […] 5 μL aliquots of the samples were diluted with 15 μL of 0.2% TFA prior to micro C4 ZipTipping directly onto the MALDI target using sinapinic acid as the desorption matrix (10 mg/ml in 0.1% TFA:Acetonitrile 50:50). Analysis was performed on a AB Sciex 4800 MALDI TOF/TOF retro fitted with an HM2 detector (CovalX). Percent modification of target MK2 (i.e., the percent of total MK2 modified by the test compound) for each compound was calculated by subtracting the centroid mass of the compound treated MK2 from the centroid mass of the control MK2 and dividing that value with the mass of the compound.

The target in assay [1] is p38a activated, mitogen-activated protein kinase-activated protein kinase 2 (MAPKAP-K2 or MK-2) enzyme (Homo sapiens (Human), UniProt P49137). The assay can be described thus: MK2 Omnia continuous-read kinase assay for compound potency. The assay is classed as biochemical. As to conditions: [MK-2]=0.4 nM, [ATP]=1.0 mM, [ST3-Sox]=10 μM. An excerpt:
The protocol below describes a continuous-read kinase assay optimized to measure potency of compounds against p38a activated, mitogen-activated protein kinase-activated protein kinase 2 (MAPKAP-K2 or MK-2) enzyme. The mechanics of the assay platform are best described by the vendor (Invitrogen, Carlsbad, Calif.) on their website at the following URL: invitrogen.com/search/global/searchAction. action?resultPage=1 &resultsPerPage=15 &query=om nia&personaFilterTerm=Support+%26+Troubleshoot
Kinase reactions were started with the addition of 40 μL of MK-2 enzyme and monitored every 71 seconds for 30-240 minutes at λex360/λem485 in a Synergy^2, Synergy^4 or Synergy H^4 plate reader from BioTek (Winooski, Vt.). […] Initial velocity (0 minutes to +30 minutes) from each reaction was estimated from the slope of a plot of relative fluorescence units vs time (minutes) and normalized to the no enzyme and no inhibitor control groups for % Inhibition. The resulting % Inhibition values were then plotted against inhibitor concentration to estimate IC50 from log[Inhibitor] vs Response, Variable Slope model in GraphPad Prism from GraphPad Software (San Diego, Calif.).
[MK-2]=0.4 nM, [ATP]=1.0 mM and [ST3-Sox]=10 μM (ATP ^appKM=8-10 μM)

MK2, sequence (P49137 whole entry): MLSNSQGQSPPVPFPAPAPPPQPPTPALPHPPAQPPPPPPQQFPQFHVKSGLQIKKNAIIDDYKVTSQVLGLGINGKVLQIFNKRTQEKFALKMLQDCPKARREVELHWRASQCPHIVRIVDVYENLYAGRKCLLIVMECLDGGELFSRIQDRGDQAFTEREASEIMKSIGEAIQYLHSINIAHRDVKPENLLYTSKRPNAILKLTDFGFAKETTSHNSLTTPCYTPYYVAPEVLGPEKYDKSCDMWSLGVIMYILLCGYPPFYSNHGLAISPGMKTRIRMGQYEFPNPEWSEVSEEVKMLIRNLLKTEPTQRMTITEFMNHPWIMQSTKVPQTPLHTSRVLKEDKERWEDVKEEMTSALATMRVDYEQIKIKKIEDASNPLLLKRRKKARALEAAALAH
p38a activated, mitogen-activated protein kinase-activated protein kinase 2 (MAPKAP-K2 or MK-2) enzyme, sequence (P49137 whole entry): as above

In the case of `C=CC(=O)NCc1csc(NC(=O)c2ccc3cc4n(c3c2)C2(CCC2)CNC4=O)n1` [Compound V-43, N-(4-(acrylamidomethyl)thiazol-2-yl)-1′-oxo-2′,3′-dihydro-1′H-spiro[cyclobutane-1,4′-pyrazino[1,2-a]indole]-7′-carboxamide], the “MK2 Mass Mod” value at MK2 is on record as “G (mass modification ≤30%)”. For the same compound, the IC50 in assay [1] was over 1000 nM.
For `C=CC(=O)N1CCC[C@H](NC(=O)c2ccc3cc4n(c3c2)C2(CCC2)CNC4=O)C1` [Compound V-47, (S)—N-(1-acryloylpiperidin-3-yl)-1′-oxo-2′,3′-dihydro-1′H-spiro[cyclobutane-1,4′-pyrazino[1,2-a]indole]-7′-carboxamide], the “MK2 Mass Mod” value on MK2 is on record as “G (mass modification ≤30%)”. Besides, the IC50 in assay [1] was over 1000 nM.
Regarding `C=CC(=O)N1Cc2cccc(NC(=O)c3ccc4cc5n(c4c3)C3(CCC3)CNC5=O)c2C1` [Compound V-48, N-(2-acryloylisoindolin-4-yl)-1′-oxo-2′,3′-dihydro-1′H-spiro[cyclobutane-1,4′-pyrazino [1,2-a]indole]-7′-carboxamide], on MK2, the “MK2 Mass Mod” value was “G (mass modification ≤30%)”. Also, the IC50 in assay [1] is over 1000 nM.
The matching figures for `C=CC(=O)N[C@@H]1CCCN(C(=O)c2ccc3cc4n(c3c2)C2(CCC2)CNC4=O)C1` [Compound V-52, (R)—N-(1-(1′-oxo-2′,3′-dihydro-1′H-spiro[cyclobutane-1,4′-pyrazino [1,2-a]indol]-7′-ylcarbonyl)piperidin-3-yl)acrylamide]: “G (mass modification ≤30%)” and over 1000 nM.
Take `C=CC(=O)Nc1cc(NC(=O)c2ccc3cc4n(c3c2)C2(CCC2)CNC4=O)ccc1C` [Compound V-53, N-(3-acrylamido-4-methylphenyl)-1′-oxo-2′,3′-dihydro-1′H-spiro[cyclobutane-1,4′-pyrazino[1,2-a]indole]-7′-carboxamide]: the “MK2 Mass Mod” value on MK2 was “E (mass modification of ≥70%)”. The IC50 in assay [1] was over 1000 nM.
For `C=CC(=O)Nc1ccc2[nH]c(-c3ccc4cc5n(c4c3)C3(CCC3)CNC5=O)nc2c1` [Compound V-59, N-(2-(1′-oxo-2′,3′-dihydro-1′H-spiro[cyclobutane-1,4′-pyrazino [1,2-a]indol]-7′-yl)-1H-benzo[d]imidazol-5-yl)acrylamide], the “MK2 Mass Mod” value on MK2 is “G (mass modification ≤30%)”. Further, the IC50 in assay [1] was under 100 nM.
`C=CC(=O)Nc1ccc2oc(-c3ccc4cc5n(c4c3)C3(CCC3)CNC5=O)nc2c1` [Compound V-60, N-(2-(1′-oxo-2′,3′-dihydro-1′H-spiro[cyclobutane-1,4′-pyrazino [1,2-a]indol]-7′-yl)benzo[d]oxazol-5-yl)acrylamide]: the “MK2 Mass Mod” value at MK2 is given as “G (mass modification ≤30%)”. Moreover, in assay [1], the IC50 was under 100 nM.
The matching figures for `C=CC(=O)Nc1cc(-c2cc3c(cn2)CCc2c4c(n(C)c2-3)CC2(CC2)NC4=O)ccc1OCCOC` [II-7, N-(2-(2-methoxyethoxy)-5-(11′-methyl-7′-oxo-5′,6′,7′,8′,10′,11′-hexahydrospiro[cyclopropane-1,9′-pyrido[3′,4′:4,5]pyrrolo[2,3-f]isoquinolin]-2′-yl)phenyl)acrylamide]: “E (mass modification of ≥70%)” and 101 to 500 nM.
In the case of `C=CC(=O)N1CCOc2ncc(-c3ncc4c(n3)-c3[nH]c5c(c3CC4)C(=O)NCC5)cc21` [II-17, 2-(1-acryloyl-2,3-dihydro-1H-pyrido[2,3-b][1,4]oxazin-7-yl)-8,9,10,11-tetrahydro-SH-pyrido[3′,4′:4,5]pyrrolo[3,2-h]quinazolin-7(6H)-one], the “MK2 Mass Mod” value on MK2 is reported as “E (mass modification of ≥70%)”. In assay [1], the IC50 was under 100 nM.
Turning to `C=CC(=O)N1CCOc2ncc(-c3cc4c(cn3)CCc3c-4[nH]c4c3C(=O)NCC4)cc21` [II-18, 2-(1-acryloyl-2,3-dihydro-1H-pyrido[2,3-b][1,4]oxazin-7-yl)-8,9,10,11-tetrahydro-SH-pyrido[3′,4′:4,5]pyrrolo[2,3-f]isoquinolin-7(6H)-one], at MK2, the “MK2 Mass Mod” value is listed as “E (mass modification of ≥70%)”. In assay [1], the IC50 was under 100 nM.
The matching figures for `C=CC(=O)Nc1cc(-c2nccc(-c3cc4c([nH]3)CCNC4=O)n2)cnc1OCCOC` [II-21, N-(2-(2-methoxyethoxy)-5-(4-(4-oxo-4,5,6,7-tetrahydro-1H-pyrrolo[3,2-c]pyridin-2-yl)pyrimidin-2-yl)pyridin-3-yl)acrylamide]: “E (mass modification of ≥70%)” and under 100 nM.
For `C=CC(=O)Nc1cc(-c2nccc(-c3cc4c([nH]3)CCNC4=O)n2)ccc1OCCOC` [II-22, N-(2-(2-methoxyethoxy)-5-(4-(4-oxo-4,5,6,7-tetrahydro-1H-pyrrolo[3,2-c]pyridin-2-yl)pyrimidin-2-yl)phenyl)acrylamide], at MK2, the “MK2 Mass Mod” value is recorded as “E (mass modification of ≥70%)”. Moreover, the IC50 in assay [1] was under 100 nM.
The matching figures for `C=CC(=O)N1CCOc2ncc(-c3nccc(-c4cc5c([nH]4)CCNC5=O)n3)cc21` [II-23, 2-(2-(1-acryloyl-2,3-dihydro-1H-pyrido[2,3-b][1,4]oxazin-7-yl)pyrimidin-4-yl)-6,7-dihydro-1H-pyrrolo[3,2-c]pyridin-4(5H)-one]: “E (mass modification of ≥70%)” and under 100 nM.
Regarding `C=CC(=O)N1CCOc2ccc(-c3ncc4c(n3)-c3[nH]c5c(c3CC4)C(=O)NCC5)cc21` [II-24, 2-(4-acryloyl-3,4-dihydro-2H-benzo[b][1,4]oxazin-6-yl)-8,9,10,11-tetrahydro-SH-pyrido[3′,4′:4,5]pyrrolo[3,2-h]i quinazolin-7(6H)-one], the “MK2 Mass Mod” value at MK2 is given as “E (mass modification of ≥70%)”. In assay [1], the IC50 was under 100 nM.
With `C=CC(=O)N1CCOc2ccc(-c3nccc(-c4cc5c([nH]4)CCNC5=O)n3)cc21` [II-25, 2-(2-(4-acryloyl-3,4-dihydro-2H-benzo[b][1,4]oxazin-6-yl)pyrimidin-4-yl)-6,7-dihydro-1H-pyrrolo[3,2-c]pyridin-4(5H)-one], the “MK2 Mass Mod” value on MK2 is on record as “E (mass modification of ≥70%)”. Further, the IC50 in assay [1] is under 100 nM.
The matching figures for `CC(C)=CC(=O)COc1cc(NC(=O)c2ccc3sc4c(c3c2)NC[C@@H](C)NC4=O)ccc1F` [III-2, (R)—N-(4-fluoro-3-((4-methyl-2-oxopent-3-en-1-yl)oxy)phenyl)-3-methyl-5-oxo-2,3,4,5-tetrahydro-1H-benzo[4,5]thieno[3,2-e][1,4]diazepine-9-carboxamide]: “G (mass modification ≤30%)” and over 1000 nM.
In the case of `C[C@@H]1CNc2c(sc3ccc(C(=O)Nc4ccc5c(c4)N(C(=O)/C=C/CN(C)C)CCO5)cc23)C(=O)N1` [III-9, (R,E)-N-(4-(4-(dimethylamino)but-2-enoyl)-3,4-dihydro-2H-benzo[b][1,4]oxazin-6-yl)-3-methyl-5-oxo-2,3,4,5-tetrahydro-1H-benzo[4,5]thieno[3,2-e][1,4]diazepine-9-carboxamide], the “MK2 Mass Mod” value at MK2 is “F (mass modification of 31-69%)”. Also, the IC50 in assay [1] was over 1000 nM.
The matching figures for `C=CC(=O)NC1COCC1NC(=O)c1ccc2sc3c(c2c1)NC[C@@H](C)NC3=O` (some centres unmarked) [III-48]: “G (mass modification ≤30%)” and under 100 nM.
With `C=CC(=O)NC1CS(=O)(=O)CC1NC(=O)c1ccc2sc3c(c2c1)NC[C@@H](C)NC3=O` (some centres unmarked) [III-49], the “MK2 Mass Mod” value on MK2 was “G (mass modification ≤30%)”. Also, in assay [1], the concentration for half-maximal inhibition (IC50) was under 100 nM.
